Experimental data: ChEMBL document CHEMBL1201862, “PubChem BioAssay data set” (2004)
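Interpolation was linear, between the two tested concentrations surrounding the appropriate level; five concentrations were tested over 48 hours in 96-well plates. At the GI50, growth is halved.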 Active and inactive are the calls of the source. No stated cut-off is given here; in the data, active = GI50 up to about 1.1 µM and inactive = higher.

Experiments:
Assay in all cases: inhibition of tumour cell growth, NCI panel, 48 h
HCT-15 = test system: HCT-15
HT-29 = test system: HT-29
IGROV-1 = test system: IGROV-1
KM12 = test system: KM12
OVCAR-8 = test system: OVCAR-8
SF-295 = test system: SF-295
SN12C = test system: SN12C
SNB-19 = test system: SNB-19
SNB-75 = test system: SNB-75
SW-620 = test system: SW-620
UACC-257 = test system: UACC-257
UACC-62 = test system: UACC-62
UO-31 = test system: UO-31
HCT-116 = test system: HCT-116
HOP-62 = test system: HOP-62
LOX IMVI = test system: LOX IMVI
M14 = test system: M14

Compound	GI50 (HCT-15) [µM]	GI50 (HT-29)	GI50 (IGROV-1)	GI50 (KM12)	GI50 (OVCAR-8)	GI50 (SF-295)	GI50 (SN12C)	GI50 (SNB-19)	GI50 (SNB-75)	GI50 (SW-620)	GI50 (UACC-257)	GI50 (UACC-62)	GI50 (UO-31)	GI50 (HCT-116)	GI50 (HOP-62)	GI50 (LOX IMVI)	GI50 (M14)
COc1ccc(/C=C/COC(C)=O)cc1OC	> 100	> 100 µM (inactive)	> 100 µM (inactive)	> 100 µM (inactive)	> 100 µM (inactive)	> 100 µM (inactive)	> 100 µM (inactive)	> 100 µM (inactive)	> 100 µM (inactive)	> 100 µM (inactive)	> 100 µM (inactive)	> 100 µM (inactive)	> 100 µM (inactive)				
C[N+]1(C)C/C(=C/c2ccc(F)cc2)C(=O)/C(=C\c2ccc(F)cc2)C1	> 100		26.1 µM (inactive)	67.8 µM (inactive)	47.2 µM (inactive)	50.6 µM (inactive)	2.14 µM (inactive)	49.3 µM (inactive)	53.8 µM (inactive)	75.9 µM (inactive)	24.7 µM (inactive)	13.8 µM (inactive)	> 100 µM (inactive)	> 100 µM (inactive)	> 100 µM (inactive)	> 100 µM (inactive)	> 100 µM (inactive)
Cn1c(=O)c2nc3sc4ccccc4c(=N)n3c2n(C)c1=O		> 100 µM (inactive)	> 100 µM (inactive)	> 100 µM (inactive)	> 100 µM (inactive)	> 100 µM (inactive)	> 100 µM (inactive)	> 100 µM (inactive)		> 100 µM (inactive)	> 100 µM (inactive)	> 100 µM (inactive)	> 100 µM (inactive)		> 100 µM (inactive)	> 100 µM (inactive)	
N#CC(NNC(=O)c1ccccc1O)c1ccccc1O (configuration not stated)	3.85	41.4 µM (inactive)	2.6 µM (inactive)	5.82 µM (inactive)	3.58 µM (inactive)	9.23 µM (inactive)	5.27 µM (inactive)		18.5 µM (inactive)	7.66 µM (inactive)	4.06 µM (inactive)	2.72 µM (inactive)	2.91 µM (inactive)	4.29 µM (inactive)	8.45 µM (inactive)	3.78 µM (inactive)	5.65 µM (inactive)
O=[N+]([O-])c1cccc(-c2oc(/C=N/c3ccccc3)c([N+](=O)[O-])c2-c2cccc([N+](=O)[O-])c2)c1		> 100 µM (inactive)	> 100 µM (inactive)	> 100 µM (inactive)	> 100 µM (inactive)	> 100 µM (inactive)			> 100 µM (inactive)	> 100 µM (inactive)	> 100 µM (inactive)	> 100 µM (inactive)	> 100 µM (inactive)	> 100 µM (inactive)	> 100 µM (inactive)	> 100 µM (inactive)	> 100 µM (inactive)
Cc1ccc([S+]([O-])c2ccccc2[N+](=O)[O-])cc1 (configuration not stated)	65	69.3 µM (inactive)	65.9 µM (inactive)	54.6 µM (inactive)	> 100 µM (inactive)	> 100 µM (inactive)	72.6 µM (inactive)	58.3 µM (inactive)		> 100 µM (inactive)	> 100 µM (inactive)	> 100 µM (inactive)	51.2 µM (inactive)	> 10 µM (inactive)	> 100 µM (inactive)	38.5 µM (inactive)	> 100 µM (inactive)
COc1ccc2c(c1)CCc1c(C(C)=O)c3ccccc3n1C2		> 100 µM (inactive)	19.3 µM (inactive)	> 100 µM (inactive)	28.1 µM (inactive)	12.7 µM (inactive)	49.5 µM (inactive)	38.5 µM (inactive)	33.4 µM (inactive)	> 100 µM (inactive)	15.3 µM (inactive)	25.6 µM (inactive)	11.7 µM (inactive)	25.8 µM (inactive)	26.4 µM (inactive)	41 µM (inactive)	94.6 µM (inactive)
C#CCn1c(=O)[nH]c(=O)c2cccnc21	> 100			> 100 µM (inactive)		> 100 µM (inactive)	> 100 µM (inactive)	> 100 µM (inactive)	> 100 µM (inactive)	> 100 µM (inactive)	> 100 µM (inactive)			> 100 µM (inactive)	> 100 µM (inactive)	> 100 µM (inactive)	> 100 µM (inactive)
Ic1ncnc2c1ncn2C1CCCO1 (configuration not stated)	> 100	> 100 µM (inactive)	> 100 µM (inactive)	> 100 µM (inactive)	> 100 µM (inactive)	> 100 µM (inactive)	> 100 µM (inactive)	> 100 µM (inactive)	35.8 µM (inactive)	> 100 µM (inactive)	> 100 µM (inactive)	> 100 µM (inactive)	> 100 µM (inactive)	> 100 µM (inactive)	> 100 µM (inactive)	> 100 µM (inactive)	> 100 µM (inactive)
COc1ccc2c3ccc4c(c3n(C)c2c1)C(=O)C=CC4=O	42.6	> 100 µM (inactive)	> 100 µM (inactive)		16.9 µM (inactive)	> 100 µM (inactive)	40.4 µM (inactive)	> 100 µM (inactive)	> 100 µM (inactive)	16.4 µM (inactive)	29.2 µM (inactive)	40.3 µM (inactive)	20.5 µM (inactive)	19.6 µM (inactive)	> 100 µM (inactive)		> 100 µM (inactive)
OC1OC2COC(c3ccccc3)OC2C(O)C1O (configuration not stated)	> 100	> 100 µM (inactive)	> 100 µM (inactive)	> 100 µM (inactive)	> 100 µM (inactive)	> 100 µM (inactive)	> 100 µM (inactive)	> 100 µM (inactive)		> 100 µM (inactive)	> 100 µM (inactive)	> 100 µM (inactive)	> 100 µM (inactive)	> 100 µM (inactive)	> 100 µM (inactive)	> 100 µM (inactive)	> 100 µM (inactive)
CCOc1ccccc1NC(=O)CCC(=O)NN	> 100	> 100 µM (inactive)	> 100 µM (inactive)	> 100 µM (inactive)	> 100 µM (inactive)	> 100 µM (inactive)	> 100 µM (inactive)	> 100 µM (inactive)	> 100 µM (inactive)	> 100 µM (inactive)	> 100 µM (inactive)	> 100 µM (inactive)	> 100 µM (inactive)	> 100 µM (inactive)	> 100 µM (inactive)	> 100 µM (inactive)	> 100 µM (inactive)
O=C(/C=C/c1ccccc1O)C(c1ccccc1)c1ccccc1	> 100	> 100 µM (inactive)	> 100 µM (inactive)	98.9 µM (inactive)	> 100 µM (inactive)	> 100 µM (inactive)	> 100 µM (inactive)	> 100 µM (inactive)	20.1 µM (inactive)	13.1 µM (inactive)	> 100 µM (inactive)	> 100 µM (inactive)	> 100 µM (inactive)	> 100 µM (inactive)	> 100 µM (inactive)	24.1 µM (inactive)	> 100 µM (inactive)
CS(=O)(=O)C1S(=O)(=O)OCCOS1(=O)=O		> 100 µM (inactive)	> 100 µM (inactive)	> 100 µM (inactive)	> 100 µM (inactive)	> 100 µM (inactive)	> 100 µM (inactive)	> 100 µM (inactive)	> 100 µM (inactive)	> 100 µM (inactive)	> 100 µM (inactive)	> 100 µM (inactive)	> 100 µM (inactive)	> 100 µM (inactive)	> 100 µM (inactive)	> 100 µM (inactive)	> 100 µM (inactive)
CC(C)=CC(=O)C/C(=N\NC(N)=S)C(=O)Nc1ccc(Cl)cc1	> 100	> 100 µM (inactive)	> 100 µM (inactive)	> 100 µM (inactive)	> 100 µM (inactive)	> 100 µM (inactive)	> 100 µM (inactive)	> 100 µM (inactive)	79.8 µM (inactive)	> 100 µM (inactive)	> 100 µM (inactive)	> 100 µM (inactive)	> 100 µM (inactive)	> 100 µM (inactive)		> 100 µM (inactive)	> 100 µM (inactive)
Cc1cn(C2CC(O)C(COC(=O)c3ccccc3)O2)c(=O)[nH]c1=O (configuration not stated)	> 100	> 100 µM (inactive)	> 100 µM (inactive)	> 100 µM (inactive)	> 100 µM (inactive)	> 100 µM (inactive)	> 100 µM (inactive)	> 100 µM (inactive)		> 100 µM (inactive)	> 100 µM (inactive)	> 100 µM (inactive)		> 100 µM (inactive)	> 100 µM (inactive)	> 100 µM (inactive)	> 100 µM (inactive)
CC(C)(C)C(=O)/C=C/c1ccc(Oc2ccccc2)cc1	> 10	8.51 µM (inactive)	30.8 µM (inactive)	14.8 µM (inactive)	30.7 µM (inactive)	24.8 µM (inactive)	19.3 µM (inactive)	26.2 µM (inactive)	23.4 µM (inactive)	17.3 µM (inactive)	18.7 µM (inactive)		15.8 µM (inactive)	12.1 µM (inactive)	27.4 µM (inactive)		15.3 µM (inactive)
CC(=O)n1cc(CC(C)O)c(=O)[nH]c1=O (configuration not stated)	> 100	> 100 µM (inactive)	> 100 µM (inactive)	> 100 µM (inactive)	> 100 µM (inactive)	> 100 µM (inactive)	17.1 µM (inactive)	> 100 µM (inactive)	> 100 µM (inactive)	> 100 µM (inactive)	> 100 µM (inactive)	> 100 µM (inactive)	> 100 µM (inactive)	> 100 µM (inactive)	> 100 µM (inactive)	> 100 µM (inactive)	> 100 µM (inactive)
